Values joined by “and” are separate entries in the source; they are usually repeats but may differ in a detail not shown here. Equal entries are not always repeated.
Legend:
[1] = for vapor or sublimation pressure: Torsion effusion method
[2] = Molar enthalpy of transition or fusion; conditions: Crystal; DSC

O=C(O)c1ccc([N+](=O)[O-])cc1[N+](=O)[O-] [2,4-dinitrobenzoic acid]
[1]
Conditions | Normal melting temperature [°C] | vapor or sublimation pressure
363.5 K, Crystal | – | 3e-05 kPa
370 K, Crystal | – | 6e-05 kPa
373 K, Crystal | – | 9e-05 kPa
375 K, Crystal | – | 0.000105 kPa
377 K, Crystal | – | 0.00015 kPa
377.5 K, Crystal | – | 0.00015 kPa
379 K, Crystal | – | 0.000195 kPa
381 K, Crystal | – | 0.00024 kPa
381.5 K, Crystal | – | 0.00024 kPa
385 K, Crystal | – | 0.00033 kPa
388.5 K, Crystal | – | 0.000511 kPa and 0.000541 kPa
389 K, Crystal | – | 0.00048 kPa and 0.000541 kPa
391 K, Crystal | – | 0.000601 kPa and 0.000631 kPa and 0.000691 kPa
393 K, Crystal | – | 0.000781 kPa
393.5 K, Crystal | – | 0.000901 kPa
394 K, Crystal | – | 0.000871 kPa
396.5 K, Crystal | – | 0.001141 kPa
397 K, Crystal | – | 0.001141 kPa
399 K, Crystal | – | 0.001351 kPa and 0.001502 kPa
399.5 K, Crystal | – | 0.001622 kPa
400 K, Crystal | – | 0.001622 kPa
401.5 K, Crystal | – | 0.001952 kPa
402 K, Crystal | – | 0.001862 kPa
402.5 K, Crystal | – | 0.001922 kPa
494.3 K, Liquid | – | 0.85 kPa
494.4 K, Liquid | – | 0.85 kPa
494.5 K, Liquid | – | 0.851 kPa
494.7 K, Liquid | – | 0.85 kPa
495.6 K, Liquid | – | 0.874 kPa
495.7 K, Liquid | – | 0.883 kPa
495.8 K, Liquid | – | 0.879 kPa
495.9 K, Liquid | – | 0.884 kPa
500.6 K, Liquid | – | 1.05 kPa and 1.065 kPa
500.8 K, Liquid | – | 1.051 kPa and 1.058 kPa
501.1 K, Liquid | – | 1.047 kPa
501.2 K, Liquid | – | 1.016 kPa and 1.046 kPa and 1.048 kPa
501.5 K, Liquid | – | 1.06 kPa
502.4 K, Liquid | – | 1.13 kPa
503.2 K, Liquid | – | 1.259 kPa
504.4 K, Liquid | – | 1.202 kPa
505.3 K, Liquid | – | 1.309 kPa
506.2 K, Liquid | – | 1.299 kPa
507.1 K, Liquid | – | 1.451 kPa
507.2 K, Liquid | – | 1.464 kPa
507.4 K, Liquid | – | 1.458 kPa
507.5 K, Liquid | – | 1.475 kPa
508.1 K, Liquid | – | 1.511 kPa
508.2 K, Liquid | – | 1.484 kPa and 1.513 kPa
508.3 K, Liquid | – | 1.516 kPa
508.5 K, Liquid | – | 1.513 kPa
510.3 K, Liquid | – | 1.607 kPa
511.4 K, Liquid | – | 1.647 kPa
511.5 K, Liquid | – | 1.909 kPa
512.3 K, Liquid | – | 1.785 kPa
512.8 K, Liquid | – | 1.798 kPa and 1.814 kPa and 1.816 kPa
512.9 K, Liquid | – | 1.849 kPa [middle of 4 runs]
513 K, Liquid | – | 1.814 kPa
513.2 K, Liquid | – | 1.704 kPa
514.4 K, Liquid | – | 1.9 kPa
515.2 K, Liquid | – | 1.995 kPa
516.4 K, Liquid | – | 1.952 kPa
517.2 K, Liquid | – | 2.293 kPa and 2.389 kPa and 2.212 kPa
517.3 K, Liquid | – | 2.207 kPa and 2.212 kPa
518.4 K, Liquid | – | 2.196 kPa
519.3 K, Liquid | – | 2.153 kPa
520.2 K, Liquid | – | 2.466 kPa
521.4 K, Liquid | – | 2.522 kPa
522.3 K, Liquid | – | 2.494 kPa
523 K, Liquid | – | 2.741 kPa
523.1 K, Liquid | – | 2.703 kPa and 2.754 kPa
523.2 K, Liquid | – | 2.768 kPa
523.3 K, Liquid | – | 2.731 kPa
524.3 K, Liquid | – | 2.997 kPa
526.3 K, Liquid | – | 3.049 kPa
527.2 K, Liquid | – | 3.107 kPa
528.4 K, Liquid | – | 3.467 kPa
528.9 K, Liquid | – | 3.528 kPa and 3.623 kPa and 3.453 kPa
529 K, Liquid | – | 3.447 kPa
529.2 K, Liquid | – | 3.297 kPa
530.4 K, Liquid | – | 3.895 kPa
531.2 K, Liquid | – | 3.694 kPa
531.3 K, Liquid | – | 3.86 kPa and 3.894 kPa
531.4 K, Liquid | – | 3.865 kPa
531.5 K, Liquid | – | 3.847 kPa
532.2 K, Liquid | – | 3.786 kPa
533.4 K, Liquid | – | 4.205 kPa
534.2 K, Liquid | – | 4.308 kPa and 3.936 kPa and 4.141 kPa
534.4 K, Liquid | – | 4.173 kPa and 4.085 kPa
535.4 K, Liquid | – | 4.593 kPa
536.3 K, Liquid | – | 4.615 kPa
537.3 K, Liquid | – | 4.715 kPa and 4.48 kPa
537.4 K, Liquid | – | 4.808 kPa and 4.815 kPa
537.5 K, Liquid | – | 4.648 kPa
538.2 K, Liquid | – | 4.909 kPa
539.2 K, Liquid | – | 5.258 kPa and 5.485 kPa and 5.433 kPa
539.3 K, Liquid | – | 5.693 kPa
539.4 K, Liquid | – | 4.999 kPa
540.3 K, Liquid | – | 5.053 kPa
541.2 K, Liquid | – | 5.592 kPa
543.3 K, Liquid | – | 5.789 kPa
544.2 K, Liquid | – | 5.62 kPa
Crystal, DTA | 182.7 | –

Conditions | Molar enthalpy of transition or fusion [kcal/mol]
[2] | 7.31
